Measurements: patent publication US20220296623A1, “REDUCED NICOTINAMIDERIBOSIDES FOR TREATING OR PREVENTING KIDNEY DISEASE” (SOCIETE DES PRODUITS NESTLE S.A., priority 2019, published 2022)
“Also recorded” adds a separate entry of the source.

Assays:
[1] = Stability of NRH or NR spiked in isolated mouse plasma; type: in vitro ADME
From the text: (§1) Levels of NRH and other NAD-related metabolites in biological samples were obtained by using a cold liquid-liquid extraction using a mixture of methanol:water:chloroform in 5:3:5 (v/v), from which the polar phase was recovered for hydrophilic interaction ultra-high performance liquid chromatography mass spectrometry (UHPLC-MS) analysis. The UHPLC consisted of a binary pump, a cooled autosampler, and a column oven (DIONEX Ultimate 3000 UHPLC+ Focused, Thermo Scientific), connected to a triple quadrupole spectrometer (TSQ Vantage, Thermo Scientific) equipped with a heated electrospray ionisation (H-ESI) source. Of each sample, 2 μL were injected into the analytical column (2.1 mm×150 mm, 5 μm pore size, 200 Å HILICON iHILIC®-Fusion(P)), guarded by a pre-column (2.1 mm×20 mm, 200 Å HILICON iHILIC®-Fusion(P) Guard Kit) operating at 35° C. The mobile phase (10 mM ammonium acetate at pH 9, A, and acetonitrile, B) was pumped at 0.25 mL/min flow rate over a linear gradient of decreasing organic solvent (0.5-16 min, 90-25% B), followed by re-equilibration for a total run time of 30 min. The MS operated in positive mode at 3500 V with multiple reaction monitoring (MRM). The software Xcalibur v4.1.31.9 (Thermo Scientific) was used for instrument control, data acquisition and processing. Retention time and mass detection was confirmed by authentic standards.
NR degradation to NAM has been proposed as a limitation for its pharmacological efficacy. To evaluate whether NRH was also susceptible to degradation to NAM, we spiked NRH or NR in isolated mouse plasma. […] We also tested the stability of NRH in other matrixes.

[2] = test system: cisplatin-induced acute kidney injury; type: in vivo, C57BI/6NTac mice
Procedure: Simultaneously, mice were intraperitoneally injected with PBS (as vehicle) or NRH (250 mg/kg). PBS or NRH was injected at 24, 48 and 72 h after the initiation of the experiment. Kidneys of the mice were harvested, 4 h after the last injection, and NAD+ levels were analyzed in the kidney through mass spectrometry. All results are expressed as mean +/−SEM of n=5 mice per group. * indicates statistical difference at p<0.05 vs. vs. respective saline-treated mice
FIG. 7. […] Simultaneously, mice were intraperitoneally injected or not with PBS (as vehicle) or NRH (250 mg/kg) at 24, 48 and 72 h after the initiation of the experiment. Mice were sacrificed 4 h after the last injection, and plasma was collected to measure blood urea nitrogen levels. All results are expressed as mean +/−SEM of n=5 mice per group. * indicates statistical difference at p<0.05 vs. vs. respective saline-treated mice
Simultaneously, mice were intraperitoneally injected or not with PBS (as vehicle) or NRH (250 mg/kg). Urine was collected 24 h later to evaluate urea levels by NMR. All results are expressed as mean +/−SEM of n=5 mice per group. * indicates statistical difference at p<0.05 vs. vs. respective saline-treated mice.
Simultaneously, mice were intraperitoneally injected or not with PBS (as vehicle) or NRH (250 mg/kg). PBS or NRH were then injected at 24, 48 and 72 h after the initiation of the experiment. Mice were sacrificed 4 h after the last injection, and kidneys were fixed in OCT and used for immunohistochemistry against cleaved caspase 3. The cleaved caspase 3 staining was then quantified against the total area, using 10 images per mouse, 5 mice per group. All results are expressed as mean +/−SEM. * indicates statistical difference at p<0.05 vs. vs. respective saline-treated mice.
Simultaneously, mice were intraperitoneally injected or not with PBS (as vehicle) or NRH (250 mg/kg). PBS or NRH were then injected at 24, 48 and 72 h after the initiation of the experiment. 4 h after the last injection, and kidneys were obtained to isolate mRNA and analyze by qPCR makers of renal dysfunction (TGF-b1), glomerular dysfunction (fibronectin), apoptosis (BAX) and ER stress (BIP). All values are expressed as mean +/−SEM of n=4 mice per group. * indicates statistical difference at p<0.05 vs. respective vehicle-injected mice. # indicates statistical difference at p<0.05 vs. the respective mice in the control group.
Kidneys were harvested 4 hrs after the last NRH injection.

[3] = test system: equilibrative nucleoside transporters (ENTs); assay: NRH action as NAD+ precursor under ENT blockage with NBTI; type: cell-based; conditions: in the presence of S-(4-nitrobenzyl)-6-thioinosine (NBTI)
From the text: In order to understand the exact path by which NRH synthesizes NAD+, we initially evaluated whether NRH, could be transported into the cell by equilibrative nucleoside transporters (ENTs).

NMNAT = assay: NRH-induced NAD+ synthesis under NMNAT inhibition with gallotannin; type: cell-based
From the text: As a follow-up step, NMNAT enzymes could catalyze the transition from NMNH to NADH.

[4] = test system: NAD+ levels in liver, skeletal muscle and kidney; assay: Tissue NAD+ levels after oral gavage of NR or NRH; type: in vivo, C57BI/6NTac mice
Procedure: 8 week-old C57BI/6NTac mice were orally gavaged with either saline (as vehicle), NR (500 mg/kg) or NRH (500 mg/kg). After 1 hour, liver, skeletal muscle and kidney NAD^+ levels were evaluated. All results are expressed as mean +/−SEM of n=5 mice per group. * indicates statistical difference at p<0.05 vs. vs. saline-treated mice. # indicates statistical difference at p<0.05 vs. NR treated mice.
Oral administration of NRH led to very similar results to those observed after IP administration. […] In contrast, NR levels were undetectable at 1 h after NR administration. As expected, NR treatment led to large increases in circulating NAM, which where ˜4-fold higher than those observed after NRH treatment.

[5] = Circulating NAM, NRH and NR after intraperitoneal injection; type: in vivo, mice; conditions: mouse, in vivo, ip
From the text: as §1
The above results prompted us to test whether NRH could act as an effective NAD+ precursor in vivo. For this, we first intraperitoneally (IP) injected mice with either NR or NRH (500 mg/kg).

INS1-cells = assay: NAD+ levels in INS1-cells after NRH treatment; type: cell-based
Procedure: (§2) The ability of NRH to potently increase NAD+ was tested as well in other cell type models.

C2C12 myotubes = assay: NAD+ levels in C2C12 myotubes after NRH treatment; type: cell-based
Procedure: as §2

[6] = cisplatin 20 mg/kg, NRH 250 mg/kg
[7] = kidney qPCR, cisplatin plus NRH

NC(=O)C1=CN([C@@H]2O[C@H](CO)[C@@H](O)[C@H]2O)C=CC1 [NRH, dihydro-1-beta-D-ribofuranosyl-3-pyridinecarboxamide]
NR production on incubation in isolated plasma [1]: did not lead to NR production | NAD+ levels in kidney above control ([2]; 4 h after NRH supplementation): did not observe higher NAD^+ levels | renal NADH levels ([2]; cisplatin 20 mg/kg IP, NRH 250 mg/kg IP at 0, 24, 48, 72 h, kidneys 4 h after last injection): prevented the drop in renal NAD^+ and NADH levels | Me2PY and Me4PY levels in urine [2, 6]: further increased | methyl-NAM levels in kidney [2, 6]: further increased methyl-NAM levels in kidney | PARP activity ([2]; cisplatin mice treated with NRH): higher | kidney structure (tubular necrosis, glomeruli dilatation, inflammation, cast formation) ([2]; histology, cisplatin 20 mg/kg, NRH 250 mg/kg): largely prevented | presence of kidney casts ([2]; histology, cisplatin plus NRH): major decrease in the presence of kidney casts | renal cell apoptosis (cleaved caspase 3 staining) ([2]; kidney immunohistochemistry, cisplatin plus NRH (FIG. 9)): protects against cisplatin-induced renal cell apoptosis | BAX mRNA (marker of apoptosis) [2, 7]: prevented cisplatin-induced increases | BIP mRNA (marker of ER stress) [2, 7]: prevented cisplatin-induced increases | TGF-β1 expression [2, 7]: prevent the increase in TGF-β1 expression | fibronectin mRNA (marker of glomerular dysfunction) [2, 7]: prevented cisplatin-induced increases | capacity as extracellular NAD+ precursor under ENT blockage [3]: largely lost its capacity as an extracellular NAD+ precursor; also recorded: a substantial action of NRH remained | NAD+ synthesis after NRH treatment in presence of gallotannin (NMNAT; NRH at maximal doses (0.5 mM)): largely compromised NAD+ synthesis; also recorded: part of the NRH action remained | NRH action in presence of gallotannin (NMNAT; NRH at submaximal doses): totally blocked by gallotannin | effect on hepatic NAD+ levels ([4]; oral administration, compared with NR): more potent effect on hepatic NAD+ levels than NR | NAD+ precursor activity in liver, muscle and kidney ([4]; oral gavage 500 mg/kg, after 1 hour (FIG. 5)): orally active NAD+ precursor in liver, muscle and kidney | NR in circulation after NRH treatment [5]: detectable in circulation after NRH treatment at much higher levels than those detected after NR injection itself | NRH in circulation [5]: detectable in circulation | NAM levels in circulation ([5]; 500 mg/kg): only a very mild increase | NAD+ levels (INS1-cells): highly elevated NAD+ levels | NAD+ levels (C2C12 myotubes): highly elevated NAD+ levels
